From ChEMBL document CHEMBL5360672, “Identification of Novel Dual-Target Estrogen Receptor α Degraders with Tubulin Inhibitory Activity for the Treatment of Endocrine-Resistant Breast Cancer” (J Med Chem, 2023)
The source made the active and inactive calls. No cut-off for these calls is given here.

Tests used:
T47D [1] = test: Antiproliferative activity against ERalpha positive human T47D cells assessed as inhibition of cell proliferation incubated for 72 hrs by CCK8 assay; format: functional, cell-based
[2] = Cytotoxicity against human MCF-10A cells assessed as inhibition of cell proliferation incubated for 72 hrs by CCK8 assay; format: toxicity, cell-based
[3] = Selectivity index, ratio of IC50 for cytotoxicity against human MCF-10A cells to IC50 for antiproliferative activity against human MCF7 cells; format: toxicity, cell-based; conditions: MCF-10A cells and MCF7 cells, read-out: Ratio IC50
T47D [4] = test: Antiproliferative activity against human T47D cells harboring ERalpha D538G mutant assessed as inhibition of cell proliferation incubated for 72 hrs by CCK8 assay; format: functional, cell-based
MDA-MB-231 = test: Antiproliferative activity against ERalpha negative human MDA-MB-231 cells assessed as inhibition of cell proliferation incubated for 72 hrs by CCK8 assay; format: functional, cell-based; conditions: MDA-MB-231, 72 h
[5] = biological target: T1, Estrogen receptor (Homo sapiens) (UniProt P03372); test: Induction of ERalpha degradation in human MCF7 cells at 5 uM incubated for 24 hrs by Western blot analysis; format: cell-based
T1 sequence (whole entry): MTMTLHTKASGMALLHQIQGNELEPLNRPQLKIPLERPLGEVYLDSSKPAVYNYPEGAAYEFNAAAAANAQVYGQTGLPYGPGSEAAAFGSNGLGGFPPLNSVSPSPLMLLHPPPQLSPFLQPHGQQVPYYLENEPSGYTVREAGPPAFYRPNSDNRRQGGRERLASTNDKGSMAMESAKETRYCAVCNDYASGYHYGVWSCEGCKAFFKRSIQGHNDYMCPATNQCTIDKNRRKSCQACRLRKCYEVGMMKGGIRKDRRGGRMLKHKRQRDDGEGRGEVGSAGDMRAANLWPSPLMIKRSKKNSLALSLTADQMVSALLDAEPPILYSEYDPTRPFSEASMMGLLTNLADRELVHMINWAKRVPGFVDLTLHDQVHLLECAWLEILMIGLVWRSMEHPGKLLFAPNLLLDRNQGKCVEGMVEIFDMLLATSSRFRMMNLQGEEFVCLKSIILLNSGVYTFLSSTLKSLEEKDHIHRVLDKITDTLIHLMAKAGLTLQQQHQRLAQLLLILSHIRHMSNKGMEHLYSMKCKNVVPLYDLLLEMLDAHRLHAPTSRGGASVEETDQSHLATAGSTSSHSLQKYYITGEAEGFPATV

[6] = biological target: T1, Estrogen receptor (Homo sapiens); test: Induction of ERalpha degradation in human MCF7 cells at 5 uM incubated for 24 hrs by Western blot analysis relative to SeCN-OBHSA derivatives; format: cell-based
[7] = biological target: T1, Estrogen receptor (Homo sapiens); test: Induction of ERalpha degradation in human MCF7 cells incubated for 6 to 24 hrs by Western blot analysis; format: cell-based; conditions: dose 0.5-5 µM, time 6-24 hrs
[8] = biological target: T1, Estrogen receptor (Homo sapiens); test: Induction of ERalpha degradation in human Tamoxifen-resistant LCC2 cells at 0.5 to 5 uM incubated for 6 to 24 hrs by Western blot analysis; format: cell-based; conditions: Tamoxifen-resistant LCC2 cell, dose 0.5-5 µM, time 6-24 hrs
LCC2 = test: Induction of cell cycle arrest in human LCC2 cells assessed as accumulation of cells at G2/M phase incubated for 48 hrs by flow cytometry analysis; format: functional, cell-based; conditions: dose 6-24 µM
MCF7 = test: Antitumor activity against human MCF7 cells xenografted in Balb/c nude mouse assessed as tumor growth inhibition at 4 mg/kg, ip administered every other day for 20 days relative to control; format: functional; conditions: MCF7, 480 h, time 20 day, read-out: TGI
Mus musculus = test: In vivo induction of ERalpha degradation in BALB/c nude mouse xenografted with human tamoxifen-resistant LCC2 cells assessed as decrease in ERalpha expression in tumor at 2 mg/kg, ip administered every other day for 20 days by Western blot analysis; format: functional, organism-based; conditions: time 20.0 day

IC50 (T47D [1]): 2.56 µM | IC50 (T47D [4]): 1.67 µM | IC50 (MDA-MB-231): 3.75 µM | Activity [5]: Active | Activity [6]: Active | Activity [7]: Dose-Dependent Effect | Activity [8]: Active
SMILES: N#C[Se]CCCCCC(=O)Nc1ccc(C2=C(c3ccc(O)cc3)C3CC(S(=O)(=O)N(CC(F)(F)F)c4ccccc4F)C2O3)cc1 (configuration not stated)
IC50 at 72 h [2]: 15.8 µM | selectivity ratio [3]: 264 | Activity (LCC2): Dose-Dependent Effect | inhibition in vivo at 4 mg/kg (MCF7): 77.7% | Activity (Mus musculus): Active
